Data as given in patent US9371295B2, “Compounds for use in the treatment of disorders that are ameliorated by inhibition of HDAC” (IRBM—Science Park S.p.A., priority 2012, dated 2016).

Columns and labels:
[1] = tested on: HDAC in Hela cells; assay: HDAC Hela Cell Based assay
[2] = target: T1, HDAC1 (Homo sapiens, UniProt Q13547); assay: HDAC1 assay (Fluor-de-Lys fluorescent deacetylase assay); type: biochemical; settings: read-out: hHDAC IC50
T1 construct: made in house
Protocol: The HDAC1 assay is used to quantify the histone deacetylase (HDAC) activity. The assay is performed in 384 well microtiter plates by pre-incubating serial dilutions of the compounds with a fixed concentration of HeLa nuclear extract or purified HDAC1 and then adding an acetylated lysine-containing substrate/developer that fluoresces upon deacetylation.
Reagents of the HDAC Fluorescent Activity Assay are purchased from BioMol Research Laboratories (Plymouth Meeting, Pa.) and feature the Fluor-de-Lys™ Substrate/Developer System.
TSA Stock: TSA is provided as a 10 mM stock solution in 100% dimethylsulfoxide (DMSO). […] The final concentration in the assay is 20 uM.
3 uM [final] TSA to this solution increases its ability to stop the reaction.
HDAC1 Working Solution: The HDAC1 enzyme is diluted in assay buffer prior to each use from a fresh aliquot of enzyme. The final concentration in the assay is 1-2 nM.
Compounds: Test compounds are directly transferred from a 100% DMSO solution into assay plates by spotting nanoliters of solutions by an acoustic dispenser (ATS-100, EDC biosystems, US).
HeLa cells transiently transfected with pCDNA3-HDAC1-FLAG are grown to 80% confluence on 10 cm culture dishes in DMEM, 10% Fetal bovine serum supplemented with antibiotics and glutamine. Cells are washed with 10 ml cold PBS and scraped into 2 ml of PBS. Cells are centrifuged for 5 minutes at 800×g at 4° C., washed with 30 ml PBS and resuspended in 10 ml PBS, counted, re-centrifuged and frozen at −80° C.
The frozen cell pellet is re-suspended in 1 ml of hypotonic lysis buffer (LB: 20 mM Hepes pH7.9, 0.25 mM EDTA, 10% glycerol) containing COMPLETE protease inhibitor and incubated on ice for 15 minutes, followed by homogenization on a 2-ml DounceB homogenizer (25 strokes). 150 mM KCl and 0.5% NP-40 are added to the homogenate and the solution is sonicated twice for 30 seconds (output5/6, duty cycle 90) and incubated for 1 hour at 4° C. After a 30 minutes centrifugation at 12000 rpm and 4° C. the supernatant (soluble extract) is collected and protein concentration is determined using the BIORAD assay.
Anti-FLAG M2 affinity resin (Sigma) is washed three times with TBS and twice with LB. 10 μl of the LB-washed resin/mg of protein (2-3 ug of Flagged-HDAC1) are added to the soluble extract (1 mL) and incubated overnight at 4° C. with gentle mixing. The resin is then collected by centrifugation, washed once with LB, twice with LB+0.1% NP40 and twice with elution buffer (50 mM Hepes pH 7.4, 5% glycerol, 100 mM KCl, 0.01% Triton X-100).
The concentration of purified HDAC is determined by Western blot analysis.

[3] = tested on: human γ-globin promoter (EGFP reporter) in K562 cells; assay: HbF activation assay on K562 (EGFP/RFP reporter model system for screening of inducers of fetal hemoglobin); type: cell-based; settings: 60 hours
Excerpt: In order to test several compounds, a model system was produced based on previous findings present in the literature. The K562 erythroid-like cell lines, isolated and characterized by Lozzio & Lozzio (Blood, 45(3), pp 321-334) from a patient with chronic myelogenous leukemia in blast crisis, have been extensively employed as a useful in vitro model to study the molecular mechanism(s) regulating the expression of embryonic and fetal human globin genes, as well as for screening of new differentiation-inducing compounds. A stable cell line where reporter genes encoding green EGFP and far-red fluorescent protein red-FP are placed under the control of the human γ-globin or β-globin promoters respectively was used (see Vadolas et al, Hum. Mol. Genet. 2004, 13, 2, 223-233 for details). The modified 3-cluster also contains the upstream regulatory region called LCR. This cell line grows in suspension at 37° C. and 5% CO2 in humidified atmosphere in the following medium: DMEM, 10% foetal bovine serum, glutamine and antibiotics (penicillin and streptomycin);
The assay procedures is as follows: • Single concentration compounds or serially diluted samples are transferred to an empty assay plates by a spotter (ATS-100, EDC Biosystems, USA) in order to have a final concentration of DMSO of 0.25% in 50 μL of cell culture. Source plats contains compounds dissolved in 100% DMSO • Black, transparent bottom, 384 wells, tissue culture treated plates are used as assay plates. • Assay plates containing spotted compounds are filled with a suspension of cell in the described assay medium. The final cell concentration is of 1000 cells per well. • Cells are incubated in humidified atmosphere, 37° C.-5% CO2, for 60 hours • Cell nuclei are stained by adding 10 ul (6 μM; 1 μM final) Hoechst 33342 (Life Technologies, USA) • The cell associated intensity is read by a plate based cytometer (ACUMEN explorer, TTP Labtech, UK) • The nuclei count is used to assess the cell proliferation/death and to normalize the total EGFP/RFP intensity. HbF Activation Assay in Human Cell Line K562
The compounds of the invention were tested in the HbF activation assay on K562, as model system for screening of potential inducers of fetal hemoglobin.

T1 sequence (Q13547 whole entry): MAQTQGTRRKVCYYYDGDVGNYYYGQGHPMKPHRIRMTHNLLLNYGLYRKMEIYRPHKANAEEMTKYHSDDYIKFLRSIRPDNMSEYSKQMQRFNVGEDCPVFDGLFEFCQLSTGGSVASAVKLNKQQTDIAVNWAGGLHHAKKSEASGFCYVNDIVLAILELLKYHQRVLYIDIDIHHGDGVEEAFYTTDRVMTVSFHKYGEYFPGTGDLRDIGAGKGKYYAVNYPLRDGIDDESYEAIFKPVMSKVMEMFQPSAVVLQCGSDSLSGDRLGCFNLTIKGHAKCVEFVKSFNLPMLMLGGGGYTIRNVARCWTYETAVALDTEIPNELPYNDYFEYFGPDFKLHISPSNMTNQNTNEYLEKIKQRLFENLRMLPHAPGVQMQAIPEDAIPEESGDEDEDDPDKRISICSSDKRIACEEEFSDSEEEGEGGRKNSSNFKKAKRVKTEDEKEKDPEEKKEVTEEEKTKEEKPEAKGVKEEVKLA

| Compound | IC50 [1] [nM] | IC50 [2] [nM] | EC50 [3] [nM] |
| --- | --- | --- | --- |
| CCC(=O)CCCCC[C@H](NC(=O)C(=O)N(C)C)c1nnc(-c2cc3ccccc3nc2OC)o1 [Compound 45, (S)-N1-(1-(5-(2-methoxyquinolin-3-yl)-1,3,4-oxadiazol-2-yl)-7-oxononyl)-N2,N2-dimethyloxalamide] | 100 to 1000 | < 100 | > 1000 |
| CCC(=O)CCCCC[C@H](NC(=O)C(=O)N1CCN(C)CC1)c1nnc(-c2cc3ccccc3nc2OC)o1 [Compound 46, (S)-N-(1-(5-(2-methoxyquinolin-3-yl)-1,3,4-oxadiazol-2-yl)-7-oxononyl)-2-(4-methylpiperazin-1-yl)-2-oxoacetamide] | 100 to 1000 | < 100 | > 1000 |
| CCC(=O)CCCCC[C@H](NC(=O)C1CCN(C)CC1)c1nnc(-c2cc3ccccc3nc2OC)o1 [Compound 47, (S)-N-(1-(5-(2-methoxyquinolin-3-yl)-1,3,4-oxadiazol-2-yl)-7-oxononyl)-1-methylpiperidine-4-carboxamide] | 100 to 1000 | < 100 | 100 to 1000 |
| CCC(=O)CCCCC[C@H](NC(=O)Cc1c(C)[nH]c2ccc(OC)cc12)c1nnc(-c2cc3ccccc3nc2OC)o1 [Compound 48, (S)-2-(5-methoxy-2-methyl-1H-indol-3-yl)-N-(1-(5-(2-methoxyquinolin-3-yl)-1,3,4-oxadiazol-2-yl)-7-oxononyl)acetamide] | < 100 | < 100 | > 1000 |
| CCC(=O)CCCCC[C@H](NC(=O)CCn1c(CC)nc2ccccc21)c1nnc(-c2cc3ccccc3nc2OC)o1 [Compound 50, (S)-3-(2-ethyl-1H-benzo[d]imidazol-1-yl)-N-(1-(5-(2-methoxyquinolin-3-yl)-1,3,4-oxadiazol-2-yl)-7-oxononyl)propanamide] | 100 to 1000 | < 100 | 100 to 1000 |
| CCC(=O)CCCCC[C@H](NC(=O)CCN(C)C)c1nnc(-c2cc3ccccc3nc2OC)o1 [Compound 51, (S)-3-(dimethylamino)-N-(1-(5-(2-methoxyquinolin-3-yl)-1,3,4-oxadiazol-2-yl)-7-oxononyl)propanamide] | 100 to 1000 | < 100 | > 1000 |
| CCC(=O)CCCCC[C@H](NC(=O)C1CN(C)C1)c1ncc(-c2ccc(-c3ccn[nH]3)cc2)o1 [Compound 53, (S)-N-(1-(5-(4-(1H-pyrazol-5-yl)phenyl)oxazol-2-yl)-7-oxononyl)-1-methylazetidine-3-carboxamide] | 100 to 1000 | < 100 | > 1000 |
| CCC(=O)CCCCC[C@H](NC(=O)C1CN(C)C1)c1ncc(-c2ccc(-c3ccnn3C)cc2)o1 [Compound 54, (S)-1-methyl-N-(1-(5-(4-(1-methyl-1H-pyrazol-5-yl)phenyl)oxazol-2-yl)-7-oxononyl)azetidine-3-carboxamide] | 100 to 1000 | < 100 | > 1000 |
| CCC(=O)CCCCC[C@H](NC(=O)C1CN(C)C1)c1ncc(-c2ccc(-n3cccn3)cc2)o1 [Compound 61, (S)-N-(1-(5-(4-(1H-pyrazol-1-yl)phenyl)oxazol-2-yl)-7-oxononyl)-1-methylazetidine-3-carboxamide] | 100 to 1000 | < 100 | > 1000 |
| CCC(=O)CCCCC[C@H](NC(=O)C1CN(C(C)=O)C1)c1ncc(-c2ccc(-n3cccn3)cc2)o1 [Compound 62, (S)-N-(1-(5-(4-(1H-pyrazol-1-yl)phenyl)oxazol-2-yl)-7-oxononyl)-1-acetylazetidine-3-carboxamide] | 100 to 1000 | < 100 | > 1000 |
| CCC(=O)CCCCC[C@H](NC(=O)[C@H](CC(F)(F)F)N(C)C)c1ncc(-c2cc3ccccc3nc2OC)o1 [Compound 63, (S)-2-(dimethylamino)-4,4,4-trifluoro-N-((S)-1-(5-(2-methoxyquinolin-3-yl)oxazol-2-yl)-7-oxononyl)butanamide] | > 1000 | 100 to 1000 | > 1000 |

Now from value to molecule:

| IC50 [1] [nM] | IC50 [2] [nM] | EC50 [3] [nM] | Compound |
| --- | --- | --- | --- |
| < 100 | < 100 | 100 to 1000 | CCC(=O)CCCCC[C@H](NC(=O)C1CCN(C)CC1)c1ncc(-c2cc3ccccc3nc2OC)o1 [Compound 39] |
| < 100 | < 100 | > 1000 | CCC(=O)CCCCC[C@H](NC(=O)c1cncs1)c1ncc(-c2cc3ccccc3nc2OC)o1 [Compound 40, (S)-N-(1-(5-(2-methoxyquinolin-3-yl)oxazol-2-yl)-7-oxononyl)thiazole-5-carboxamide] |
| 100 to 1000 | < 100 | > 1000 | CCC(=O)CCCCC[C@H](NC(=O)C1CN(C(C)=O)C1)c1ncc(-c2cc3ccccc3nc2OC)o1 [Compound 55, (S)-1-acetyl-N-(1-(5-(2-methoxyquinolin-3-yl)oxazol-2-yl)-7-oxononyl)azetidine-3-carboxamide] |
| 100 to 1000 | < 100 | > 1000 | CCC(=O)CCCCC[C@H](NC(=O)C1CN(Cc2ccccc2)C1)c1ncc(-c2cc3ccccc3nc2OC)o1 [Compound 56, (S)-1-benzyl-N-(1-(5-(2-methoxyquinolin-3-yl)oxazol-2-yl)-7-oxononyl)azetidine-3-carboxamide] |
| 100 to 1000 | < 100 | > 1000 | CCC(=O)CCCCC[C@H](NC(=O)C1CNC1)c1ncc(-c2cc3ccccc3nc2OC)o1 [Compound 57, (S)-N-(1-(5-(2-methoxyquinolin-3-yl)oxazol-2-yl)-7-oxononyl)azetidine-3-carboxamide] |
| 100 to 1000 | < 100 | > 1000 | CCC(=O)CCCCC[C@H](NC(=O)[C@@H]1CC(F)(F)CN1C)c1ncc(-c2cc3ccccc3nc2OC)o1 [Compound 58, (S)-4,4-difluoro-N-((S)-1-(5-(2-methoxyquinolin-3-yl)oxazol-2-yl)-7-oxononyl)-1-methylpyrrolidine-2-carboxamide] |
| 100 to 1000 | < 100 | > 1000 | CCC(=O)CCCCC[C@H](NC(=O)Cn1ccnn1)c1ncc(-c2cc3ccccc3nc2OC)o1 [Compound 59, (S)-N-(1-(5-(2-methoxyquinolin-3-yl)oxazol-2-yl)-7-oxononyl)-2-(1H-1,2,3-triazol-1-yl)acetamide] |
| > 1000 | < 100 | > 1000 | CCC(=O)CCCCC[C@H](NC(=O)[C@@H]1CC(F)(F)CN1)c1ncc(-c2cc3ccccc3nc2OC)o1 [Compound 60, (S)-4,4-difluoro-N-((S)-1-(5-(2-methoxyquinolin-3-yl)oxazol-2-yl)-7-oxononyl)pyrrolidine-2-carboxamide] |
| > 1000 | < 100 | > 1000 | CCC(=O)CCCCC[C@H](NC(=O)[C@@H](CC(F)(F)F)N(C)C)c1ncc(-c2cc3ccccc3nc2OC)o1 [Compound 64, (R)-2-(dimethylamino)-4,4,4-trifluoro-N-((S)-1-(5-(2-methoxyquinolin-3-yl)oxazol-2-yl)-7-oxononyl)butanamide] |
